EP2322194A2 (Reprise Biopharmaceutics, LLC, priority 2003, dated 2005)
Values joined by “and” are separate entries in the source; they are usually repeats but may differ in a detail not shown here. Equal entries are not always repeated. Where two headings read alike, the source gives them in different places.

System: over-hydrated, healthy, non-smoking male and female volunteers
Type: in vivo, human
Conditions: for Urine Output: individual subjects
Protocol: Briefly, an open-label, crossover study with 8 healthy, over-hydrated, non-smoking male and female volunteers, age 18-40. The subjects were dosed initially with 0.5 ng/kg dose, then with the 1.0 ng/kg dose and finally the 2.0 ng/kg dose. Pharmacodynamic and pharmacokinetic parameters were evaluated at each dose level. A washout period of two days (48 hours) was observed between dosing. Eight subjects evaluated in this study, 5 males, and 3 females. […] Each subject remained in the clinic from one day prior to first dosing to one day after last dosing for a total of 7 days. […] At this point over-hydration was discontinued. […] Urine-specific gravity was also measured. […] This same procedure was followed for the 1.0 ng/kg and 2.0 ng/kg infusions. […] Criteria for evaluation in the study included urine output over time, urine osmolality over time, urine-specific gravity over time, and […] osmolality and sodium over time. Statistical analysis on the above criteria was performed. The statistical analysis is descriptive and all statistical hypothesis testing was done for exploratory purposes. […] The second and third estimation used 200 mOsm/kg and 400 mOsm/kg as cut off levels for 'onset' and 'end' of action, respectively. […] The overall duration of action was estimated for each dose group using the nonparametric Kaplan-Meier method. […] Furthermore, the duration of action was presented for each treatment group using the mean, SD, median, minimum and maximum values. The dose-response relationship between duration of action and dose was investigated using an appropriate linear or nonlinear model.

[1] = 1.0 ng/kg, time -20 min (baseline)
[2] = 2.0 ng/kg, time 0 min (baseline)
[3] = 2.0 ng/kg, time -20 min (baseline)

1-desamino-8-D-arginine vasopressin [desmopressin]
Urine Osmolality, Mean (1.0 ng/kg, time 140 min): 412.2 mOsm/kg | Urine Output, Mean (1.0 ng/kg, time 140 min): 1.8 mL/min | Urine Output (1.0 ng/kg, time 140 min): 0 mL/min | Urine Osmolality, Mean (1.0 ng/kg, time 160 min): 261.7 mOsm/kg | Urine Output, Mean (1.0 ng/kg, time 160 min): 3.2 mL/min | Urine Osmolality, Mean (1.0 ng/kg, time 180 min): 280.9 mOsm/kg | Urine Output, Mean (1.0 ng/kg, time 180 min): 5.0 mL/min | Urine Output (1.0 ng/kg, time 180 min): 7.1 mL/min | Urine Osmolality, Mean (1.0 ng/kg, time 200 min): 216.3 mOsm/kg | Urine Output, Mean (1.0 ng/kg, time 200 min): 6.7 mL/min | Urine Output (1.0 ng/kg, time 200 min): 4.3 mL/min | Urine Osmolality, Mean (1.0 ng/kg, time 220 min): 121.4 mOsm/kg | Urine Output, Mean (1.0 ng/kg, time 220 min): 7.3 mL/min | Urine Osmolality, Mean (1.0 ng/kg, time 240 min): 181.6' mOsm/kg | Urine Output (1.0 ng/kg, time 240 min): 5.5 mL/min | Urine Osmolality, Mean (1.0 ng/kg, time 260 min): 181.8 mOsm/kg | Urine Output, Mean (1.0 ng/kg, time 260 min): 6.6 mL/min | Urine Output (1.0 ng/kg, time 260 min): 4.7 mL/min | Urine Osmolality, Mean (1.0 ng/kg, time 280 min): 242.5 mOsm/kg | Urine Output, Mean (1.0 ng/kg, time 280 min): 4.7 mL/min | Urine Output (1.0 ng/kg, time 280 min): 0 mL/min | Urine Osmolality, Mean (1.0 ng/kg, time 300 min): 202.0 mOsm/kg | Urine Output (1.0 ng/kg, time 300 min): 11.5 mL/min | Urine Osmolality, Mean (1.0 ng/kg, time 320 min): 164.8 mOsm/kg | Urine Output (1.0 ng/kg, time 320 min): 6.7 mL/min | Urine Osmolality, Mean (1.0 ng/kg, time 340 min): 155.5 mOsm/kg | Urine Output, Mean (1.0 ng/kg, time 340 min): 10.6 mL/min | Urine Osmolality, Mean (1.0 ng/kg, time 360 min): 156.3 mOsm/kg | Urine Output, Mean (1.0 ng/kg, time 360 min): 10.4 mL/min | Urine Osmolality, Mean [1]: 55.8 mOsm/kg | Urine Output, Mean [1]: 16.6 mL/min | Urine Output [1]: 10.2 mL/min and 16.8 mL/min | duration of antidiuretic effect (2.0 ng/kg dose): ~360 min | Mean peak urine osmolality (2.0 ng/kg dose, at 2 hours): 587.2 mOsm/kg | Baseline mean urine osmolality (2.0 ng/kg dose, baseline): 55.6 mOsm/kg | Baseline mean urine output (2.0 ng/kg dose, baseline): 16.9 mL/min | Mean nadir urine output (2.0 ng/kg dose, end of 2 hour infusion): 0.7 mL/min | Urine Osmolality, Mean [2]: 56.0 mOsm/kg | Urine Output, Mean [2]: 16.5 mL/min | Urine Osmolality, Mean (2.0 ng/kg, time 20 min): 75.6 mOsm/kg | Urine Output, Mean (2.0 ng/kg, time 20 min): 10.5 mL/min | Urine Osmolality, Mean (2.0 ng/kg, time 40 min): 301.4 mOsm/kg | Urine Output, Mean (2.0 ng/kg, time 40 min): 2.3 mL/min | Urine Osmolality, Mean (2.0 ng/kg, time 60 min): 410.0 mOsm/kg | Urine Output, Mean (2.0 ng/kg, time 60 min): 1.3 mL/min | Urine Osmolality, Mean (2.0 ng/kg, time 80 min): 516.0 mOsm/kg | Urine Output, Mean (2.0 ng/kg, time 80 min): 0.7 mL/min | Urine Osmolality, Mean (2.0 ng/kg, time 100 min): 525.6 mOsm/kg | Urine Output, Mean (2.0 ng/kg, time 100 min): 0.7 mL/min | Urine Osmolality, Mean (2.0 ng/kg, time 120 min): 587.2 mOsm/kg | Urine Output, Mean (2.0 ng/kg, time 120 min): 0.7 mL/min | Urine Osmolality, Mean (2.0 ng/kg, time 140 min): 576.7 mOsm/kg | Urine Output, Mean (2.0 ng/kg, time 140 min): 1.0 mL/min | Urine Osmolality, Mean (2.0 ng/kg, time 160 min): 534.7 mOsm/kg | Urine Output, Mean (2.0 ng/kg, time 160 min): 1.2 mL/min | Urine Osmolality, Mean (2.0 ng/kg, time 180 min): 534.3 mOsm/kg | Urine Output, Mean (2.0 ng/kg, time 180 min): 1.2 mL/min | Urine Osmolality, Mean (2.0 ng/kg, time 200 min): 494.5 mOsm/kg | Urine Output, Mean (2.0 ng/kg, time 200 min): 1.1 mL/min | Urine Osmolality, Mean (2.0 ng/kg, time 220 min): 438.7 mOsm/kg | Urine Output, Mean (2.0 ng/kg, time 220 min): 1.3 mL/min | Urine Osmolality, Mean (2.0 ng/kg, time 240 min): 455.1 mOsm/kg | Urine Output, Mean (2.0 ng/kg, time 240 min): 2.2 mL/min | Urine Osmolality, Mean (2.0 ng/kg, time 260 min): 355.3 mOsm/kg | Urine Output, Mean (2.0 ng/kg, time 260 min): 2.4 mL/min | Urine Osmolality, Mean (2.0 ng/kg, time 280 min): 343.2 mOsm/kg | Urine Output, Mean (2.0 ng/kg, time 280 min): 2.5 mL/min | Urine Osmolality, Mean (2.0 ng/kg, time 300 min): 324.4 mOsm/kg | Urine Output, Mean (2.0 ng/kg, time 300 min): 3.2 mL/min | Urine Osmolality, Mean (2.0 ng/kg, time 320 min): 220.9 mOsm/kg | Urine Output, Mean (2.0 ng/kg, time 320 min): 6.6 mL/min | Urine Osmolality, Mean (2.0 ng/kg, time 340 min): 173.0 mOsm/kg | Urine Osmolality, Mean (2.0 ng/kg, time 360 min): 143.8 mOsm/kg | Urine Output, Mean (2.0 ng/kg, time 360 min): 9.3 mL/min | Urine Osmolality, Mean [3]: 55.6 mOsm/kg | Urine Output, Mean [3]: 16.9 mL/min | antidiuretic effect (low doses as i.v. infusions over 2 hours, dose response fashion): significant antidiuretic effects
